Measured values as given in BindingDB's records for doi:10.7270/Q2DV1HJQ (The Scripps Research Institute Molecular Screening Center, 2014).
pIC50: −log10 of the molar value.

What follows are compounds tested against Disintegrin and metalloproteinase domain-containing protein 17 (Homo sapiens, UniProt P78536) (assay: inhibition of ADAM17 substrate cleavage – biochemical, quenched FRET substrate, counter-screen for ADAM10 exosite inhibitor project, dose response (AID 743253)).
Disintegrin and metalloproteinase domain-containing protein 17, sequence (P78536 whole entry, the tested form may be a part): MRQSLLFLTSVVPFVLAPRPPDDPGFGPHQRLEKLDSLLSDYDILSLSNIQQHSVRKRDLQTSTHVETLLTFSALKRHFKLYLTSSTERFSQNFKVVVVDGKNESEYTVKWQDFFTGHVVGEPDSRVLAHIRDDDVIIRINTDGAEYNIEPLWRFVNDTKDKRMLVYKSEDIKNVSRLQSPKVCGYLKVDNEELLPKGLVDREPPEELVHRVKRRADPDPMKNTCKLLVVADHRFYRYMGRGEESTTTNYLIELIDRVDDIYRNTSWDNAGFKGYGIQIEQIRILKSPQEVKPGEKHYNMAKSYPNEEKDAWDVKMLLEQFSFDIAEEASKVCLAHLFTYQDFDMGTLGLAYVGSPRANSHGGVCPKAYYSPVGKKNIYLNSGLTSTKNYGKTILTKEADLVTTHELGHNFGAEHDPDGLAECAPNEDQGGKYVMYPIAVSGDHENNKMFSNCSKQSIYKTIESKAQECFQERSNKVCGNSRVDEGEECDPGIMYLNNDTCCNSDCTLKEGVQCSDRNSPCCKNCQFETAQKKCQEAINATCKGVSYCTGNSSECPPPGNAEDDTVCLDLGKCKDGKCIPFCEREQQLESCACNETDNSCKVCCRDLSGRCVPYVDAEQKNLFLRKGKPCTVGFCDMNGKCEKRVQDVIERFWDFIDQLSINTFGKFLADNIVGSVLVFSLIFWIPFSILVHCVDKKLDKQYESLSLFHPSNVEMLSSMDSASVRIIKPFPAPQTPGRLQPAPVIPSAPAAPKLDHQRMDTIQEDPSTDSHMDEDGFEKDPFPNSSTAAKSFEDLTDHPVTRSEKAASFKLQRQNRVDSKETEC

Row | Compound | pIC50
1 | N#CCSc1nc2cc(C(=O)N3CCC(C(N)=O)CC3)ccc2c2nc3ccccc3n12 [1-({6-[(cyanomethyl)thio]benzimidazo[1,2-c]quinazolin-3-yl}carbonyl)piperidine-4-carboxamide] | 4.16
2 | COc1ccc(N2C(=O)NC(=O)C(=Cc3c[nH]c4ccc(Br)cc34)C2=O)c(OC)c1 [(5E)-5-[(5-bromo-1H-indol-3-yl)methylene]-1-(2,4-dimethoxyphenyl)pyrimidine-2,4,6(1H,3H,5H)-trione] | 4.92
3 | O=C1C=CC([N+](=O)[O-])=CC1CN=Nc1ccccn1 (stereo not drawn) [MLS000585015] | 5.01
